Assay results as given in BindingDB's records for PubMed 8301575 (Institut De Recherches Servier, 1994).

Legend:
[1] = target: 5-hydroxytryptamine receptor 2A (Rattus norvegicus, UniProt P14842)
[2] = target: 5-hydroxytryptamine receptor 1B (Rattus norvegicus, UniProt P28564)
[3] = target: T1, 5-hydroxytryptamine receptor 2C (Sus scrofa, UniProt G7ZKZ7)
T1 sequence (G7ZKZ7 whole entry): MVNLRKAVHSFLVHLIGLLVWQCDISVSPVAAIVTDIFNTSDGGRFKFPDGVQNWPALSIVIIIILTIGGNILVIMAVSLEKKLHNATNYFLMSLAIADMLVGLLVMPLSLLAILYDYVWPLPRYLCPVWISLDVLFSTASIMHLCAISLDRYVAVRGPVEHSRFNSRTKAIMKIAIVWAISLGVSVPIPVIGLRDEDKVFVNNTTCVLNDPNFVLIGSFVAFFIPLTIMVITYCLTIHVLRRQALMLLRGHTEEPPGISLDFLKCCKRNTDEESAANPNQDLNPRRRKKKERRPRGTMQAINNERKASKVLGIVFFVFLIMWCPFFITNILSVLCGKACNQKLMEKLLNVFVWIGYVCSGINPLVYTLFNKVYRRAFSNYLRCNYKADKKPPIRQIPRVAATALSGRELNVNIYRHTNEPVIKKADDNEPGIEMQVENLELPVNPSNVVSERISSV

[4] = target: T2, 5-hydroxytryptamine receptor 3A (Rattus norvegicus, UniProt P35563)
T2 sequence (P35563 whole entry): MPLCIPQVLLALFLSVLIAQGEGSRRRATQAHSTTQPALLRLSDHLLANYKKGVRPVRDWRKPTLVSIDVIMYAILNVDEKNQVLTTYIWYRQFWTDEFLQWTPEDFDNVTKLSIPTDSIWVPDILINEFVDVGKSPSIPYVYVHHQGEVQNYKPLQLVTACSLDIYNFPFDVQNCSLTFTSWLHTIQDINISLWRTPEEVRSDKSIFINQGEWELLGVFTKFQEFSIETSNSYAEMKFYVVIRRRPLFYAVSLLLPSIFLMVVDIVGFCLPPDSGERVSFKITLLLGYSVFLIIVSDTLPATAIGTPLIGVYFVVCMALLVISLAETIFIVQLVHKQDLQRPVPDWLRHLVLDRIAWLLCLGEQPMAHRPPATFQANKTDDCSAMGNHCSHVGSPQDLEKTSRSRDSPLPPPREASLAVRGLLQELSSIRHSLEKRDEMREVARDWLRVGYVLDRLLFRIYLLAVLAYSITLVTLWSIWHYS

[5] = target: T3, 5-hydroxytryptamine receptor 1A (Rattus norvegicus, UniProt P19327)
T3 sequence (P19327 whole entry): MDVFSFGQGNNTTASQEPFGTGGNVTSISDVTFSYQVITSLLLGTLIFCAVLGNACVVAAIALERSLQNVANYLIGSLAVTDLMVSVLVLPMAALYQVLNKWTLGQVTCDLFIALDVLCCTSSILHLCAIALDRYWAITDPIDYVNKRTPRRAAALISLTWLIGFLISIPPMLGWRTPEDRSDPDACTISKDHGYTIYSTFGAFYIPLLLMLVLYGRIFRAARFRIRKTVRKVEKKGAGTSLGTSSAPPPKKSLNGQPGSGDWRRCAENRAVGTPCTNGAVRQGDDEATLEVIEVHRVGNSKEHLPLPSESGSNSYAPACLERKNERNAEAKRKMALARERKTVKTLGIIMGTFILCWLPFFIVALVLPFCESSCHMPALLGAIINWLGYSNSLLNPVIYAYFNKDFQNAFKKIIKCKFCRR

5-hydroxytryptamine receptor 2A, sequence (P14842 whole entry): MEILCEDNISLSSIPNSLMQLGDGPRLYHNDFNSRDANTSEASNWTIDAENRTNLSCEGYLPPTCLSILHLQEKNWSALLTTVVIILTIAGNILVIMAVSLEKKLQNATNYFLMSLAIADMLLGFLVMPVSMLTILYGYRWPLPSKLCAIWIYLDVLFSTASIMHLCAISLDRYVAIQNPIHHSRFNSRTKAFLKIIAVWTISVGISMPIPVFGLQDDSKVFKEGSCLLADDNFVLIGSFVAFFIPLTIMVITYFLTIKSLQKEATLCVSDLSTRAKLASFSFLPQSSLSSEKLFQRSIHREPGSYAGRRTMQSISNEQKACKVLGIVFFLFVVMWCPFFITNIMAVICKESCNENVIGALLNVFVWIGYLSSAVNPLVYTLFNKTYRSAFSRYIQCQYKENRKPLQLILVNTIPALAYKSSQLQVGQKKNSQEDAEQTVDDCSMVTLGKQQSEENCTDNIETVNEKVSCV
5-hydroxytryptamine receptor 1B, sequence (P28564 whole entry): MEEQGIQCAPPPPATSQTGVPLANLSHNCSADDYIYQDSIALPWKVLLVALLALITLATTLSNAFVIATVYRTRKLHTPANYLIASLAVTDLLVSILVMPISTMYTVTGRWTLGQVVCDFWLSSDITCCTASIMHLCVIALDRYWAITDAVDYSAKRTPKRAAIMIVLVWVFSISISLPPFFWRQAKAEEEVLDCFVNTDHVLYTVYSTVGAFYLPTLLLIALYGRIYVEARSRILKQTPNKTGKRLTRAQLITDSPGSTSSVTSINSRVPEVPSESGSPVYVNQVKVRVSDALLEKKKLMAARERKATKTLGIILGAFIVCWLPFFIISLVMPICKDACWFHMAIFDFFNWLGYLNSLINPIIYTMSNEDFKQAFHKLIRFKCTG

SMILES: COc1ccccc1N1CCN(CCN2C(=O)CC3(CCCC3)CC2=O)CC1
- Ki [1]: 1740 nM
- Ki [2]: > 10000 nM
- Ki [3]: 234 nM
- Ki [4]: 1000 nM

SMILES: CC(C)(C)NCC(O)COc1cccc2c1SCCC2 (single isomer, unassigned; (-)) [TERTATOLOL(-)]
- Ki [1]: 1450 nM
- Ki [2]: 182 nM
- Ki [3]: 363 nM
- Ki [4]: 1000 nM
- Ki [5]: 8.31 nM

SMILES: c1cc2c(c(N3CCNCC3)c1)OCCO2 [1-(2,3-Dihydro-benzo[1,4]dioxin-5-yl)-piperazine]
- Ki [1]: 1380 nM
- Ki [2]: 53.7 nM
- Ki [3]: 170 nM
- Ki [4]: 1000 nM
- Ki [5]: 9.33 nM

SMILES: COc1ccccc1N1CCN(CCCCN2C(=O)c3ccccc3C2=O)CC1 [2-{4-[4-(2-Methoxy-phenyl)-piperazin-1-yl]-butyl}-isoindole-1,3-dione]
- Ki [1]: 646 nM
- Ki [2]: 1070 nM
- Ki [3]: 776 nM

SMILES: O=C(CCCN1CCC2(CC1)C(=O)NCN2c1ccccc1)c1ccc(F)cc1 [8-[4-(4-fluorophenyl)-4-oxidanylidene-butyl]-1-phenyl-1,3,8-triazaspiro[4.5]decan-4-one]
- Ki [2]: > 10000 nM
- Ki [3]: 977 nM
- Ki [5]: 115 nM

SMILES: C=CCc1ccccc1OC[C@@H](O)CNC(C)C [ALPRENOLOL,(-)]
- Ki [1]: 5010 nM
- Ki [2]: 100 nM
- Ki [3]: 4470 nM

SMILES: O=C1CC2(CCCC2)CC(=O)N1CCNCC1COc2ccccc2O1 (configuration not stated) [CAS_124756-23-6]
- Ki [1]: 1620 nM
- Ki [2]: 4570 nM
- Ki [3]: 427 nM
- Ki [5]: 1.25 nM

SMILES: COC(=O)c1cc2c(N3CCN(CCCCN4C(=O)c5ccccc5S4(=O)=O)CC3)cccc2[nH]1 [CAS_141533-35-9]
- Ki [5]: 1.58 nM

SMILES: c1ccc2c(c1)CCC2CCN1CCN(c2cccc3c2OCCO3)CC1 (configuration not stated) [CAS_182596]
- Ki [1]: 191 nM
- Ki [2]: 417 nM
- Ki [3]: 115 nM
- Ki [4]: 53.7 nM
- Ki [5]: 1.51 nM

SMILES: c1ccc2c(c1)CC(N1CCN(c3cccc4c3OCCO4)CC1)C2 [NSC_132787]
- Ki [1]: 214 nM
- Ki [2]: 1740 nM
- Ki [3]: 537 nM
- Ki [4]: 1000 nM

SMILES: c1ccc2c(c1)CC2CCN1CCN(c2cccc3c2OCCO3)CC1 (configuration not stated) [NSC_182595]
- Ki [1]: 141 nM
- Ki [2]: 603 nM
- Ki [3]: 151 nM
- Ki [4]: 372 nM
- Ki [5]: 0.61 nM

SMILES: COc1ccccc1N1CCN(C[C@@H](C(=O)NC(C)(C)C)c2ccccc2)CC1 [WAY 100135]
- Ki [1]: 3470 nM
- Ki [2]: > 10000 nM
- Ki [3]: 3470 nM
- Ki [4]: 1000 nM
- Ki [5]: 32.4 nM
